# System: M. tuberculosis H37Rv (ATCC 27294)
# Assay: Antitubercular activity by microdilution method, M. tuberculosis H37Rv
# Assay type: cell-based
# Conditions: Mycobacterium tuberculosis, 264 h, growth similar to well inoculated with 10 CFU, read after 11 days by visual investigation, three replicates
row,SMILES,MIC [µg/mL]
1,"N#Cc1ccccc1NC(=O)COc1ccc([N+](=O)[O-])c(F)c1 [Compound 3j, N-(2-Cyanophenyl)-2-(3-fluoro-4-nitrophenoxy)acetamide]",64
2,"O=C(COc1ccc([N+](=O)[O-])c(F)c1)Nc1ccccc1C(F)(F)F [Compound 3k, 2-(3-Fluoro-4-nitrophenoxy)-N-(2-(trifluoromethyl)phenyl)acetamide]",64
3,"O=C(COc1ccc([N+](=O)[O-])c(F)c1)Nc1ccc(OC(F)(F)F)cc1 [Compound 3l, 2-(3-Fluoro-4-nitrophenoxy)-N-(4-(trifluoromethoxy)phenyl)acetamide]",32
4,"O=C(COc1ccc([N+](=O)[O-])c(F)c1)Nc1ccccc1[N+](=O)[O-] [Compound 3m, 2-(3-Fluoro-4-nitrophenoxy)-N-(2-nitrophenyl)acetamide]",4
5,"O=C(COc1ccc([N+](=O)[O-])c(F)c1)Nc1ccc(Br)cc1Cl [Compound 3n, N-(4-Bromo-2-chlorophenyl)-2-(3-fluoro-4-nitrophenoxy)acetamide]",32
6,"O=C(COc1ccc([N+](=O)[O-])c(F)c1)Nc1ccc(C(F)(F)F)cc1 [Compound 3o, 2-(3-Fluoro-4-nitrophenoxy)-N-(4-(trifluoromethyl)phenyl)acetamide]",16
7,"Cc1ccc([N+](=O)[O-])cc1NC(=O)COc1ccc([N+](=O)[O-])c(F)c1 [Compound 3p, 2-(3-Fluoro-4-nitrophenoxy)-N-(2-methyl-5-nitrophenyl)acetamide]",64
8,"COC(=O)COc1ccc(NC(=O)COc2ccc(C)cc2C)cc1 [I, methyl 2-(4-(2-(2,4-dimethylphenoxy)acetamido)phenoxy)acetate]",4
9,NNC(=O)c1ccncc1 [Isoniazide],0.0625

# System: A375 human melanoma cells
# Assay: MTT-based cytotoxicity assay, A375
# Assay type: cell-based
# Conditions: A-375, 48 h
# Procedure: (§1) Briefly, cells (2,500/well) were seeded in 96-well plates and cultured for 24 h, followed by treatment with the target compounds for another 48 h. MTT ([…], 20 μL) was added per well and incubated for another 2.5 h at 37 °C. Then the supernatant fluid was removed and 150 μL/well DMSO was added for 15–20 min. The absorbance (OD) of each well was measured at 570 nm, using a SpectraMAX M5 microplate spectrophotometer (Molecular Devices, Sunnyvale, CA, USA). The IC50 Values are means ± SEM of three independent experiments.
row,SMILES,IC50 [µM]
1,"O=C(COc1ccc([N+](=O)[O-])c(F)c1)Nc1ccccc1[N+](=O)[O-] [Compound 3m, 2-(3-Fluoro-4-nitrophenoxy)-N-(2-nitrophenyl)acetamide]",> 40

# Same assay, conditions: A-375, A375, MTT, 48 h treatment, means ± SEM of three independent experiments, read-out: IC50
row,SMILES,IC50 [µM]
1,"O=C(COc1ccc([N+](=O)[O-])c(F)c1)Nc1ccc(C(F)(F)F)cc1 [Compound 3o, 2-(3-Fluoro-4-nitrophenoxy)-N-(4-(trifluoromethyl)phenyl)acetamide]",28.3 ± 1.2

# System: A549 lung adenocarcinoma epithelial cells
# Assay: MTT-based cytotoxicity assay, A549
# Assay type: cell-based
# Conditions: Homo sapiens, A549, 48 h
# Procedure: as §1
row,SMILES,IC50 [µM]
1,"O=C(COc1ccc([N+](=O)[O-])c(F)c1)Nc1ccccc1[N+](=O)[O-] [Compound 3m, 2-(3-Fluoro-4-nitrophenoxy)-N-(2-nitrophenyl)acetamide]",> 40

# Same assay, conditions: Homo sapiens; A549; MTT, 48 h treatment; means ± SEM of three independent experiments; read-out: IC50
row,SMILES,IC50 [µM]
1,"O=C(COc1ccc([N+](=O)[O-])c(F)c1)Nc1ccc(C(F)(F)F)cc1 [Compound 3o, 2-(3-Fluoro-4-nitrophenoxy)-N-(4-(trifluoromethyl)phenyl)acetamide]",> 40

# System: HepG2 hepatocellular liver carcinoma cells
# Assay: MTT-based cytotoxicity assay, HepG2
# Assay type: cell-based
# Conditions: Homo sapiens, HepG2, 48 h
# Procedure: as §1
row,SMILES,IC50 [µM]
1,"O=C(COc1ccc([N+](=O)[O-])c(F)c1)Nc1ccccc1[N+](=O)[O-] [Compound 3m, 2-(3-Fluoro-4-nitrophenoxy)-N-(2-nitrophenyl)acetamide]",> 40

# Same assay, conditions: Homo sapiens; HepG2; MTT, 48 h treatment; means ± SEM of three independent experiments; read-out: IC50
row,SMILES,IC50 [µM]
1,"O=C(COc1ccc([N+](=O)[O-])c(F)c1)Nc1ccc(C(F)(F)F)cc1 [Compound 3o, 2-(3-Fluoro-4-nitrophenoxy)-N-(4-(trifluoromethyl)phenyl)acetamide]",> 40

# System: HCT116 colorectal carcinoma cells
# Assay: MTT-based cytotoxicity assay, HCT116
# Assay type: cell-based
# Conditions: Homo sapiens, HCT-116, 48 h
# Procedure: as §1
row,SMILES,IC50 [µM]
1,"O=C(COc1ccc([N+](=O)[O-])c(F)c1)Nc1ccccc1[N+](=O)[O-] [Compound 3m, 2-(3-Fluoro-4-nitrophenoxy)-N-(2-nitrophenyl)acetamide]",> 40

# Same assay, conditions: Homo sapiens, HCT-116; HCT116; MTT, 48 h treatment; means ± SEM of three independent experiments; read-out: IC50
row,SMILES,IC50 [µM]
1,"O=C(COc1ccc([N+](=O)[O-])c(F)c1)Nc1ccc(C(F)(F)F)cc1 [Compound 3o, 2-(3-Fluoro-4-nitrophenoxy)-N-(4-(trifluoromethyl)phenyl)acetamide]",> 40

# System: SKOV-3 ovarian carcinoma cells
# Assay: MTT-based cytotoxicity assay, SKOV-3
# Assay type: cell-based
# Conditions: Homo sapiens, SK-OV-3, 48 h
# Procedure: as §1
row,SMILES,IC50 [µM]
1,"O=C(COc1ccc([N+](=O)[O-])c(F)c1)Nc1ccccc1[N+](=O)[O-] [Compound 3m, 2-(3-Fluoro-4-nitrophenoxy)-N-(2-nitrophenyl)acetamide]",> 40

# Same assay, conditions: Homo sapiens, SK-OV-3; SKOV-3; MTT, 48 h treatment; means ± SEM of three independent experiments; read-out: IC50
row,SMILES,IC50 [µM]
1,"O=C(COc1ccc([N+](=O)[O-])c(F)c1)Nc1ccc(C(F)(F)F)cc1 [Compound 3o, 2-(3-Fluoro-4-nitrophenoxy)-N-(4-(trifluoromethyl)phenyl)acetamide]",28.6 ± 2.3

# System: Hela Henrietta Lacks strain cancer cells
# Assay: MTT-based cytotoxicity assay, Hela
# Assay type: cell-based
# Conditions: Homo sapiens, HeLa, 48 h
# Procedure: as §1
row,SMILES,IC50 [µM]
1,"O=C(COc1ccc([N+](=O)[O-])c(F)c1)Nc1ccccc1[N+](=O)[O-] [Compound 3m, 2-(3-Fluoro-4-nitrophenoxy)-N-(2-nitrophenyl)acetamide]",> 40

# Same assay, conditions: Homo sapiens; Hela; MTT, 48 h treatment; means ± SEM of three independent experiments; read-out: IC50
row,SMILES,IC50 [µM]
1,"O=C(COc1ccc([N+](=O)[O-])c(F)c1)Nc1ccc(C(F)(F)F)cc1 [Compound 3o, 2-(3-Fluoro-4-nitrophenoxy)-N-(4-(trifluoromethyl)phenyl)acetamide]",33.8 ± 1.7

# System: Vero normal African green monkey kidney epithelial cells
# Assay: MTT-based cytotoxicity assay, Vero
# Assay type: cell-based
# Conditions: Chlorocebus sabaeus, Vero, 48 h
# Procedure: as §1
row,SMILES,IC50 [µM]
1,"O=C(COc1ccc([N+](=O)[O-])c(F)c1)Nc1ccccc1[N+](=O)[O-] [Compound 3m, 2-(3-Fluoro-4-nitrophenoxy)-N-(2-nitrophenyl)acetamide]",> 40

# Same assay, conditions: Chlorocebus sabaeus; Vero normal cells; MTT, 48 h treatment; means ± SEM of three independent experiments; read-out: IC50
row,SMILES,IC50 [µM]
1,"O=C(COc1ccc([N+](=O)[O-])c(F)c1)Nc1ccc(C(F)(F)F)cc1 [Compound 3o, 2-(3-Fluoro-4-nitrophenoxy)-N-(4-(trifluoromethyl)phenyl)acetamide]",> 40

# Same assay, conditions: MTT assay; result in words
row,SMILES,safety profile in a vero cell line
1,"O=C(COc1ccc([N+](=O)[O-])c(F)c1)Nc1ccccc1[N+](=O)[O-] [Compound 3m, 2-(3-Fluoro-4-nitrophenoxy)-N-(2-nitrophenyl)acetamide]",good safety profile

# System: six different tumor cell lines
# Assay: MTT-based cytotoxicity assay, six cell lines stated together
# Conditions: one bound stated for all six cell lines, read-out: IC50 against the tested six different cell lines
# Procedure: as §1
row,SMILES,IC50 [µM]
1,"O=C(COc1ccc([N+](=O)[O-])c(F)c1)Nc1ccccc1[N+](=O)[O-] [Compound 3m, 2-(3-Fluoro-4-nitrophenoxy)-N-(2-nitrophenyl)acetamide]",> 40

# Same assay, conditions: result in words
SMILES,inhibitory effects against six different tumor cell lines,safety profile / toxicity in six different cell lines
"O=C(COc1ccc([N+](=O)[O-])c(F)c1)Nc1ccccc1[N+](=O)[O-] [Compound 3m, 2-(3-Fluoro-4-nitrophenoxy)-N-(2-nitrophenyl)acetamide]",no inhibitory effects,good safety profile

# System: not given
# Assay: not given
# Conditions: not given
row,SMILES,melting point [°C]
1,"N#Cc1ccccc1NC(=O)COc1ccc([N+](=O)[O-])c(F)c1 [Compound 3j, N-(2-Cyanophenyl)-2-(3-fluoro-4-nitrophenoxy)acetamide]",172 to 174
2,"O=C(COc1ccc([N+](=O)[O-])c(F)c1)Nc1ccccc1C(F)(F)F [Compound 3k, 2-(3-Fluoro-4-nitrophenoxy)-N-(2-(trifluoromethyl)phenyl)acetamide]",146 to 147
3,"O=C(COc1ccc([N+](=O)[O-])c(F)c1)Nc1ccc(OC(F)(F)F)cc1 [Compound 3l, 2-(3-Fluoro-4-nitrophenoxy)-N-(4-(trifluoromethoxy)phenyl)acetamide]",146 to 148
4,"O=C(COc1ccc([N+](=O)[O-])c(F)c1)Nc1ccccc1[N+](=O)[O-] [Compound 3m, 2-(3-Fluoro-4-nitrophenoxy)-N-(2-nitrophenyl)acetamide]",201 to 202
5,"O=C(COc1ccc([N+](=O)[O-])c(F)c1)Nc1ccc(Br)cc1Cl [Compound 3n, N-(4-Bromo-2-chlorophenyl)-2-(3-fluoro-4-nitrophenoxy)acetamide]",173 to 175
6,"O=C(COc1ccc([N+](=O)[O-])c(F)c1)Nc1ccc(C(F)(F)F)cc1 [Compound 3o, 2-(3-Fluoro-4-nitrophenoxy)-N-(4-(trifluoromethyl)phenyl)acetamide]",173 to 175
7,"Cc1ccc([N+](=O)[O-])cc1NC(=O)COc1ccc([N+](=O)[O-])c(F)c1 [Compound 3p, 2-(3-Fluoro-4-nitrophenoxy)-N-(2-methyl-5-nitrophenyl)acetamide]",211 to 213

# Reference: article PMC6268079, “Synthesis and Biological Evaluation of 2-(3-Fluoro-4-nitro phenoxy)-N-phenylacetamide Derivatives as Novel Potential Affordable Antitubercular Agents” (Molecules, 2012)
